Consider 9 substances from patent publication US10858688B2, “Observation method using binding and dissociation probe” (KYOTO UNIVERSITY, priority 2015, dated 2020).

Where no end group is shown, it is not given here.

Experiment [1] has as its system microtubule. The experiment can be described thus: Washability test of probe candidates. Further details: key: “washability” is positive (P) when above criterion (2) is met. The experiment is classed as cell-based, Xenopus laevis. The following applies: speckles equal to or less than about 10% after switching imaging solution 10 to 20 times. On the procedure: (§1) (2) It is possible to wash and remove a probe after SiMS imaging (imaging step);
(§2) The […] of the above (2), whose result is shown in table 1, was performed in the following procedures. […] This switching of imaging solution was conducted slowly so that the observation position would not shift. Next, an imaging solution not containing a probe and not containing the active oxygen-scavenging mix was switched 10 to 20 times. After the switching, for confirmation, for an XCT cell sample in the observation chamber, speckle images of 10 frames were picked up under a similar condition to that of the localization test described in the previous paragraph, and when the number of speckles confirmed in the speckle images (i.e., the number of probes that had bound) became sufficiently smaller (equal to or less than about 10%) than the number of the speckles in the speckle images before the washing operation, washing was determined to be possible and the result was treated as P (positive).

The subject of experiment [2] is microtubule. Nature of the experiment: Localization test of probe candidates (integrated SiMS images). The experiment is classed as cell-based, Xenopus laevis. Further details: key: “localization” is positive (P) when above criterion (1) is met. The following applies: fixed, permeabilized XTC cell; lysate supernatant of EGFP fused probe; TIRF, 10000 frames. On the procedure:
(§3) HEK (Human embryonic kidney)-293F cells were transfected with a plasmid encoding a probe candidate protein tagged with FLAG-EGFP or 3×FLAG-EGFP. […] Centrifugal separation was performed on the lysate and the supernatant liquid was collected. In order to perform screening for a probe for IRIS, the binding capacity of a probe candidate in the supernatant liquid with respect to the structure of an XCT cell that was fixed with paraformaldehyde (PFA) and that received a permeabilization process was tested. The appearance and disappearance of single molecule speckles (Single-molecule speckles, SiMS) in the structure was tested. Screening was performed for a probe for IRIS in accordance with the following criteria:
(§4) (1) It is possible to confirm a distribution of target substances in the structure in an image resulting from adding SiMS images;
(§5) The localization test of the above (1), whose result is shown in table 1, was performed in the following procedures. First, the supernatant liquid of lysate of a cell that expressed each probe candidate was brought into contact with an XCT cell that was fixed on a coverglass and that received a permeabilization process. […] The obtained speckle images of 10000 frames were integrated so as to confirm whether or not a distribution of target substances in the cell (microtubule, intermediate filament, focal adhesion or actin filament) was able to be confirmed. When a distribution of a target substances was able to be confirmed, the result of the localization test was treated as P (positive).

In experiment [3] the test system is microtubule. The experiment can be described thus: Labeling patterns of microtubules in TIRF IRIS images. Format: cell-based, Xenopus laevis. The conditions noted are these: for labeling of microtubule plus end (tip): when EB1 existed (cold methanol-preprocessed cells). The text has this: FIG. 12 show labeling patterns of microtubules by a CLIP-170 fragment (amino acid residues 3-309 of sequence number 12), an APC fragment (amino acid residues 2536-2843 of sequence number 14), a MAP4 fragment (amino acid residues 1-908 of sequence number 4) and Tau isoform 3 (full length of sequence number 5). The patterns are different depending upon procedures for fixing cells. FIG. 12 (a) and FIG. 12 (b) show live-cell imaging during the fixation operation. In FIG. 12 (a), the accumulation of EB1-EGFP at the tips of microtubules disappeared in a process by 3.7% PFA and 0.5% Triton-X 100. In FIG. 12 (b), EB1-EGFP was fixed in a state in which it was accumulated at the tips of the microtubules in a process by cold methanol. […] With these probes, IRIS images of the entire microtubules were obtained. […] The microtubule tips were labeled strongly with a CLIP-170 fragment while they were weakly labeled with a MAP4 fragment and Tau isoform 3 (see merged images in the lower tier).
A plurality of IRIS probes for a microtubule and a focal adhesion visualized different sites of their structure bodies. […] The result corresponds to in-vitro data (document 26). Further, Paxillin and the Src fragment visualized different portions of focal adhesion (FIG. 13). Thus, IRIS can also be applied to mapping analysis of a site in which a plurality of protein fragments bind. Development of an IRIS probe that binds to a molecule in a specific state also makes it is possible to perform super-resolution mapping on the molecule in the specific state.

Experiment [4] has as its system microtubule. The experiment can be described thus: IRIS image test (reconstruction image). Format: cell-based, Xenopus laevis. Further details: key: “IRIS image” is positive (P) when above criterion (3) is met. The conditions noted are these: reconstruction from 10000 frames with DAOSTORM
On the procedure:
(§6) […] It is possible to reconstruct an image of a target substance by integrating the central positions of the respective speckles. The IRIS image test of the above (3) whose result is described in table 1 was performed in the following procedures. By using all the speckle images of 10000 frames picked up in the localization test, the central point of a probe that has bound to a target in each frame of the speckle images was determined with nanometer accuracy by using DAOSTORM. By adding a large number of pieces of central point information in the fluorescence images of 10000 frames, a reconstruction image (observation image) was generated. Whether or not a distribution of a target molecule was able to be observed in that reconstruction image was determined, and when a distribution of a target molecule was observed, the result was treated as P (positive).

Experiment [5] has as its system microtubule. The experiment can be described thus: Measurement of binding half-life of probe-target complex. Further details: species or system Xenopus laevis. The conditions noted are these: fixed XTC cell, single exponential fit. An excerpt: (§7) A probe and a target substance have the following binding characteristics. […] The above half-life herein is preferably a half-life of a probe-target complex formed by binding between a probe and a target substance in a case when a medium containing a probe and a sample containing a target substance that is to be observed are brought into contact under a condition for performing an imaging step. […] Measurement procedures for the half-life are as below. […] Ndissociation is a cumulative relative frequency of a probe that dissociated. A cumulative relative frequency is a ratio of the speckles that disappeared within a given period of time to the total number of measured speckles (i.e. probes) (i.e. probes that dissociated within a given period of time), and represents the total number as 1. Then, by fitting the above complementary cumulative relative frequency function with an exponent function, that half-life is calculated.
The measurement of binding half-life, whose result is shown in table 1, was performed in the following procedures. Speckle images of 10000 frames picked up in the localization test were used in order to measure a period of time between the appearance of a probe that has bound to a target in a speckle image and disappearance through dissociation in a semi-manual mode by using Speckle TrackerJ, an ImageJ plug-in. In case of for example picking up of images with an exposure time of 50 ms and at a frame rate of 20 Hz, it is assumed that a period of time between the appearance and disappearance of a speckle that is observed in only one of consecutive frames is 50 ms and a period of time between the appearance and disappearance of a speckle observed in only two consecutive frames is 100 ms. […] Ndissociation is a cumulative relative frequency of probes that dissociated. Then, by fitting the complementary cumulative relative frequency function with an exponent function, the half-life was calculated. However, the binding half-life with respect to an actin filament of Atto488-Lifeact was measured by using a method that is described in detail in the section for FIG. 9 in the Brief Description of the Drawings.

Another experiment relates to actin filament. The conditions noted are these: document 10; cited from earlier work.
Experiment [6] concerns focal adhesion. The experiment can be described thus: Washability test of probe candidates. Format: cell-based, Xenopus laevis. Further details: key: “washability” is positive (P) when above criterion (2) is met. The conditions noted are these: speckles equal to or less than about 10% after switching imaging solution 10 to 20 times. On the procedure:
as §1, §2

The subject of experiment [7] is focal adhesion. The experiment can be described thus: Localization test of probe candidates (integrated SiMS images). Format: cell-based, Xenopus laevis. Further details: key: “localization” is positive (P) when above criterion (1) is met. The conditions noted are these: fixed, permeabilized XTC cell; lysate supernatant of EGFP fused probe; TIRF, 10000 frames. On the procedure:
as §3, §4, §5

Experiment [8] concerns focal adhesion. Nature of the experiment: Measurement of binding half-life of probe-target complex. Further details: species or system Xenopus laevis. The conditions noted are these: fixed XTC cell, single exponential fit.
Description: as §7
The measurement of binding half-life, whose result is shown in table 1, was performed in the following procedures. […] Then, by fitting the complementary cumulative relative frequency function with an exponent function, the half-life was calculated. However, the binding half-life with respect to an actin filament of Atto488-Lifeact was measured by using a method that is described in detail in the section for FIG. 9 in the Brief Description of the Drawings.

Experiment [9] relates to focal adhesion. The experiment can be described thus: IRIS image test (reconstruction image). The experiment is classed as cell-based, Xenopus laevis. Further details: key: “IRIS image” is positive (P) when above criterion (3) is met. The following applies: reconstruction from 10000 frames with DAOSTORM
On the procedure:
as §6

“CLIP-170: EGFP fused (N terminus) rat CLIP-170 fragment, amino acid residues 3-309 of sequence number 12”: in the experiment on microtubule [1], the WASHABILITY result was “P”. In the experiment with microtubule [2], the LOCALIZATION entry is “P”. In the experiment on microtubule [3] (when EB1 did not exist (PFA and Triton-X 100)), the labeling of microtubule result is on record as “continuously labeled the entire microtubule”. In the experiment on microtubule [3], the “labeling of microtubule plus end (tip)” value is recorded as “strongly labeled”. The “IRIS IMAGE” value in the experiment with microtubule [4] is “P”. This substance also had an HALF-LIFE in the experiment on microtubule [5] of 0.044 s.
On to “Lifeact: widely used actin marker; short peptide that stains an actin filament in a live cell or a fixed cell (document 10) (MGVADLIKKFESISKEE)”, for which the “time of being exchanged on an actin filament” value in the experiment with actin filament was at most 0.4 s.
In the case of “APC 2536-2843: EGFP fused (C terminus) human APC fragment, amino acid residues 2536-2843 of sequence number 14”, the WASHABILITY result in the experiment on microtubule [1] is recorded as “P”. For the same substance, the LOCALIZATION result with microtubule [2] is “P”. In addition, the “IRIS IMAGE” value with microtubule [4] is “P”. Further, in the experiment on microtubule [5], the HALF-LIFE was 0.1 s.
On to “TAU ISOFORM 4: EGFP fused (N terminus) human Tau isoform 4, 1-352 of sequence number 6”, for which the WASHABILITY result in the experiment on microtubule [1] is listed as “P”. Further, the LOCALIZATION entry in the experiment with microtubule [2] is recorded as “P”. The “IRIS IMAGE” value in the experiment with microtubule [4] is “P”. Moreover, the HALF-LIFE in the experiment with microtubule [5] was found to be 0.06 s.
For the substance “APC 2781-2819: EGFP fused (N terminus) human APC fragment, amino acid residues 2781-2819 of sequence number 14 ({EGFP}-VTPFNYNPSPRKSSADSTSARPSQIPTPVNNNTKKRDSK; UniProt P25054 2781-2819, looked up, fragment)”, in the experiment with microtubule [1], the WASHABILITY result is “P”. Moreover, the LOCALIZATION entry in the experiment on microtubule [2] is “P”. The “IRIS IMAGE” value in the experiment with microtubule [4] was “P”. In the experiment with microtubule [5], this substance gave an HALF-LIFE of 0.027 s.
Take “Paxillin 1-557: EGFP fused (N terminus) human Paxillin, full length 1-557 of sequence number 15”: the WASHABILITY result in the experiment on focal adhesion [6] is reported as “P”. In addition, the LOCALIZATION entry with focal adhesion [7] is listed as “P”. For the same substance, the HALF-LIFE in the experiment with focal adhesion [8] amounted to 0.196 s. Besides, in the experiment on focal adhesion [9], the “IRIS IMAGE” value is “P”.
In the case of “Paxillin 54-557: EGFP fused (N terminus) human Paxillin fragment, residues 54-557 of sequence number 15”, the WASHABILITY entry in the experiment with focal adhesion [6] was “P”. The LOCALIZATION entry with focal adhesion [7] was “P”. In the experiment with focal adhesion [8], this substance came in with an HALF-LIFE of 0.246 s. Besides, the “IRIS IMAGE” value with focal adhesion [9] was “P”.
On to “TAU ISOFORM 3: EGFP fused (N terminus) human Tau isoform 3, full length 1-383 of sequence number 5”, for which, in the experiment with microtubule [1], the WASHABILITY entry is listed as “P”. Further, the LOCALIZATION result in the experiment with microtubule [2] is reported as “P”. For the same substance, the “labeling of microtubule plus end (tip)” value in the experiment with microtubule [3] was “weakly visualized”. Also, in the experiment on microtubule [4], the “IRIS IMAGE” value is on record as “P”. This substance also gave an HALF-LIFE with microtubule [5] of 0.11 s.
Consider “MAP4 1-908: EGFP fused (N terminus) mouse MAP4 fragment, amino acid residues 1-908 of sequence number 4”, for which the WASHABILITY entry in the experiment on microtubule [1] is recorded as “P”. Further, in the experiment on microtubule [2], the LOCALIZATION result was “P”. Moreover, the “labeling of microtubule plus end (tip)” value with microtubule [3] is given as “weakly visualized”. For the same substance, the “IRIS IMAGE” value with microtubule [4] was “P”. Moreover, in the experiment on microtubule [5], the HALF-LIFE is 0.109 s.
